# Details: buffer; pH 7.4; 200.0 µM
row,Structure (SMILES),solubility kinetic
1,Cn1c(N2CCOCC2)c(C#N)c2ccccc21,17 µg/mL
2,COc1cc(/C=N/O)ccc1Oc1cnccn1,> 36.8 µg/mL
3,CC(C)N(Cc1ccccc1)C(=O)CN1C(=O)c2ccccc2C1=O,> 50.5 µg/mL
4,Cc1ccc(C)c(S(=O)(=O)c2c(C)cc(C)nc2Cl)c1,27 µg/mL
5,CCOc1ccccc1OC(=O)CN1C(=O)c2ccccc2C1=O,16.2 µg/mL
6,CN(C(=O)c1ccncc1)C1CCCN(Cc2ccccc2F)C1 (stereo not drawn),> 49.1 µg/mL
7,COc1cc(OC)cc(C(=O)NC2CC3CCC(C2)N3C)c1 (stereo not drawn),38.4 µg/mL
8,Cc1ccc(S(=O)(=O)c2c(C)c(C)c(C)[nH]c2=O)cc1,29.7 µg/mL
9,Cl.O=C(CCN1CCN(CCO)CC1)N1c2ccccc2Sc2ccc(C(F)(F)F)cc21,65.7 µg/mL
10,CC(=O)Nc1ccc(S(=O)(=O)NCCCc2ccccc2)cc1,> 49.9 µg/mL
11,CC(OC(=O)c1cccc([N+](=O)[O-])c1)C(=O)N1CCc2ccccc21 (stereo not drawn),3.7 µg/mL
12,FC(F)(F)c1ccc(NCCc2ccccc2)nc1,3.7 µg/mL
13,CN(C)c1ccc2nsnc2c1[N+](=O)[O-],33.4 µg/mL
14,CCN(CC)c1ccc2c(O)cc(=O)oc2c1,> 35 µg/mL
15,Cc1nc2ccc([N+](=O)[O-])cc2nc1C,> 30.5 µg/mL
16,CC(=O)Cc1cc2cc([N+](=O)[O-])ccc2oc1=O,> 37.1 µg/mL
17,Cc1nn(C)cc1C(C)Nc1nc2nonc2nc1N1CCCCC1 (stereo not drawn),> 51.4 µg/mL
18,N/C(=N\OC(=O)c1ccc(F)cc1)c1ccc(Br)cc1,0.4 µg/mL
19,Cc1ccc(C(C)NC(=O)c2ccncc2)c(C)c1 (stereo not drawn),> 38.1 µg/mL
20,O=C(c1cccs1)N1CCN(c2ncc(Br)cn2)CC1,9.5 µg/mL
21,CC(Cc1c[nH]c2ccccc12)NC(=O)OCCCl (stereo not drawn),> 42.1 µg/mL
22,Cc1ccc(F)cc1NC(=O)N1CCCN(c2ccc(C(F)(F)F)cn2)CC1,6.6 µg/mL

row,Structure (SMILES),solubility kinetic
1,O=c1onc(-c2cccnc2)n1-c1ccccc1F,33 µg/mL
2,C[C@H](NC(=O)c1ccc(C(C)(C)C)cc1)C(=O)N1CCN(C/C=C/c2ccccc2)CC1,21.6 µg/mL
3,Cc1ccc(NC(=O)c2cccnc2C(=O)Nc2ccc(C)cc2)cc1,1.9 µg/mL
4,COc1ccc(CCNC(=O)c2ccco2)cc1OC,40.8 µg/mL
5,CC1CCN(C(=O)CN(c2cccc(F)c2)S(C)(=O)=O)CC1,> 49.3 µg/mL
6,CN1CCC(CNC(=O)Nc2csc3ccccc23)CC1,> 45.5 µg/mL
7,OCCCNc1nc(-c2ccccc2)c2cc(Cl)ccc2n1,21.5 µg/mL
8,Cc1ccc(S(=O)(=O)NC(=O)COc2ccccc2)cc1,> 45.8 µg/mL
9,COc1ccc(NC(=O)CN2CCc3ccccc3C2)cc1OC,> 49 µg/mL
10,CC#CC(=O)NC1CCCN(C2Cc3ccccc3C2)C1 (stereo not drawn),> 42.4 µg/mL
11,C=CCNC(=O)c1ccccc1NC(=O)C1CC(=O)N(C(C)C)C1 (stereo not drawn),> 49.4 µg/mL
12,Cc1cccnc1NC(=O)c1sc2ccccc2c1Cl,3 µg/mL
13,CC(=O)Nc1cccc(NC(=O)Cc2cccs2)c1,28.4 µg/mL
14,Cc1ccc(OCC(O)CN2CCOCC2)cc1C.Cl (stereo not drawn),> 45.3 µg/mL
15,Nc1ccc(S(=O)(=O)[O-])c[nH+]1,> 26.1 µg/mL
16,CCOc1cc(OCC)cc(C(=O)NCc2ccco2)c1,5.5 µg/mL
17,COC(CNc1ncnc2c1cnn2C)OC,> 35.6 µg/mL
18,N#Cc1nccnc1N1CCN(C(=O)Nc2ccccc2)CC1,> 46.3 µg/mL
19,CCOc1ccc2ccccc2c1C1NC(=O)N(C)C(C)=C1C(=O)OCCOC (stereo not drawn),1.9 µg/mL
20,CC(C)OC(=O)CSc1nc2c(cc1C#N)CCCCC2,< 0.3 µg/mL
21,Cn1c(Cc2ccccc2)nnc1SCC(=O)NC1CCCC1,> 49.6 µg/mL
22,CSc1nc2c(c(=O)[nH]c(=O)n2C)n1CCCc1ccccc1,24 µg/mL

row,Structure (SMILES),solubility kinetic
1,CCOC(=O)c1cc(C)n(-c2ccc(Cl)cc2)c1C,1.2 µg/mL
2,O=C(CN1CCCC1)Nc1ccc(Cl)cc1C(F)(F)F,22.3 µg/mL
3,O=C(NC1CC2CCCC(C1)N2C(=O)Nc1ccccc1F)C1CC1 (stereo not drawn),16.2 µg/mL
4,c1ccc(N2CCN(Cc3cn4ccccc4n3)CC2)cc1,40.8 µg/mL
5,O=S(=O)(Nc1ccc2c(c1)OCCO2)c1cccc(F)c1,> 46.4 µg/mL
6,O=c1ccc(-c2ccccc2)no1,> 26 µg/mL
7,COC(=O)c1ccc2nccnc2c1,22.7 µg/mL
8,Cn1c(-c2ccccc2)c[n+]2c1CCCCC2.[Br-],> 46.1 µg/mL
9,COc1ccc(NC(=O)c2ccc(NC(=O)CN3CCN(c4ccccc4)CC3)cc2)cc1,1.4 µg/mL
10,CCn1cc(CCC(=O)NC(C)c2ccccc2)c2ccccc21 (stereo not drawn),7.4 µg/mL
11,N#C/C(=C(/O)CCl)c1nc(-c2ccccc2)cs1,41.3 µg/mL
12,COc1ccc(-c2noc(CCC(=O)NC3CCCC3)n2)cc1,27.2 µg/mL
13,O=C(CSc1nnc(-c2ccccc2)o1)NC1CC1,> 41.3 µg/mL
14,Cc1ccc(Nc2nc(C)nc3c2oc2ccccc23)cc1,0.3 µg/mL
15,CCC1CCCCN1Cc1ccc(N)cc1 (stereo not drawn),> 32.8 µg/mL
16,O=[N+]([O-])c1ccc(SCCc2ccccn2)cc1,30.6 µg/mL
17,Cc1ccc2cccc(OCc3ccc(Br)cc3)c2n1,0.9 µg/mL
18,C=CCN=C1CCCc2c1[nH]c1ccc(C)cc21,10.3 µg/mL
19,O=C(O)CN1C(=O)C(=O)N(Cc2c(F)cccc2Cl)C1=O,45.5 µg/mL
20,CC(C)(C#CC(O)(c1ccccc1)c1ccccc1)N1CCCCC1,46.3 µg/mL
21,CNC(=S)Nc1cccc(S(=O)(=O)NC2=NCCC2)c1,45.7 µg/mL
22,O=C1[C@@H]2CSCN2C(=O)CN1Cc1c(F)cccc1Cl,> 47.2 µg/mL

row,Structure (SMILES),solubility kinetic
1,Cc1ccc(/C=C2/SC(=S)N(CCC(=O)N3CCOCC3)C2=O)cc1,< 0.4 µg/mL
2,CCc1noc(C)c1C(=O)OCC(=O)NC(=O)c1ccccc1,> 47.4 µg/mL
3,c1ccc2c(c1)OCC(CNCC1COc3ccccc3O1)O2 (stereo not drawn),> 47 µg/mL
4,O=C(NCc1cccnc1)C(=O)Nc1nc(-c2ccccc2)cs1,4.8 µg/mL
5,Cc1ccccc1NC(=S)N1CCCCCC1,> 37.3 µg/mL
6,Clc1ccc(N=c2ssnc2Cl)cc1,2.7 µg/mL
7,CC(=O)N1CCN(Cc2nc3cc([N+](=O)[O-])ccc3n2C)CC1,45.1 µg/mL
8,O=C(Nc1cccc([N+](=O)[O-])c1)c1ccc(N2CCCC2=O)cc1,1.5 µg/mL
9,Cc1c2c(n3c(nc4ccccc43)c1C#N)N(CCCN(C)C)CC2,> 50 µg/mL
10,O=C(Nc1ccc2c(c1)OCO2)Nc1ccccc1F,2.7 µg/mL
11,O=C(CN1C(=O)NC2(CCc3ccccc32)C1=O)c1cccs1 (stereo not drawn),> 49 µg/mL
12,CCc1c(SCCC(=O)O)nc2ccccc2c1C,> 41.3 µg/mL
13,Cl.Clc1cccc(OCCN2CCCC2)c1,37.2 µg/mL
14,O=C(c1ccco1)N1CCN(C(=S)NC2CC3CCC2C3)CC1 (stereo not drawn),46.8 µg/mL
15,C=Cc1ccc(Cn2c(=O)n(C)c(=O)c3sccc32)cc1,1 µg/mL
16,Cc1ccccc1CN1CCN(CC2CC2)CC1CCO (stereo not drawn),> 43.3 µg/mL
17,Cc1ccc(S(=O)(=O)NC2CC2)s1,> 32.6 µg/mL
18,CC(=O)N(C)c1ccc(NS(=O)(=O)c2cccc3nsnc23)cc1,> 54.4 µg/mL
19,Cn1cc(C(=O)OCC(=O)Nc2ccccc2)c2ccccc21,7.8 µg/mL
20,CC(C(=O)NC1CCCCCC1)c1ccc([N+](=O)[O-])cc1 (stereo not drawn),7.1 µg/mL
21,Cc1cc(C)c2ccc3c(C)c(C)n(C)c3c2n1,< 0.3 µg/mL
22,CC(=O)N(CCC1(C(C)C)CCOC(C)(C)C1)C(C)c1cccs1 (stereo not drawn),51.1 µg/mL

# From PubChem BioAssay AID1996
